# Legend:
# Format in all cases: cell-based
# [1] = tested on: normal human keratinocytes; experiment: ROS detection with H2DCFDA probe in normal human keratinocytes; details: 20 minutes
# Source text: • 1)—Background Information The aim of the present evaluation was to evaluate the antioxidant and antipollution effects of the extract HCR, against oxidative stress in normal human cultured keratinocytes extracted from abdominal plastic surgery (donor), using the H2DCFDA probe. […] It is cell-permeant and stable. When it penetrates the cell, acetate groups are cleaved by intracellular esterases. The resulting product is the dichlorodihydrofluorescein (or H2DCF), non-fluorescent. […] The probe oxidation is not specific of one type of ROS. The fluorescence is detected at wavelengths of 490 nm (excitation) and 525 nm (emission). […] A XTT assay was previously performed, to check the cells viability, in order to determine the concentrations to be tested, as described in Example 2. • 2)—Evaluation of Antioxidant Effect (H2DCFDA Probe) Normal human keratinocytes were seeded in 96-well microplates and are then treated with the test compound to be tested for 24 hours, before adding the fluorescent probe for detection of ROS and stimulating or not by the pollutant or hydrogen peroxide. This test is based on the use of a detection system, a probe, which is degraded and fluoresces on contact with ROS. […] After incubation, fluorescence was read at 490 nm (excitation) and 525 nm (emission) wavelengths (Tecan Safire II reader). Data are expressed as RFU (fluorescence units). […]
# [2] = tested on: Normal human fibroblasts (NHF); experiment: Autophagic activity (MDC assay) in fibroblasts irradiated with blue light; details: for Decrease of autophagic activity of irradiated fibroblast cells: irradiated at 453 nanometers
# Experimental: • 1)—Background Information The purpose of the study is to evaluate effects of one HCR extracts on autophagic activities of in fibroblast irradiated with 453 nanometers blue light. The cells (normal human fibroblasts or (NHF)) are cultured as primary monolayer. Product to be tested is applied during 24 hours before irradiation and the n the product to be tested is applied during 24 hours . then autophagic activity is measured (MDC). Lysosomes are cytoplasmic organelles that permit recycling of cellular materials that have exceeded their lifetime or are otherwise no longer useful. Their main function is to digest endogeneous or exogeneous substrates (so called autophagy) in eukaryotic cells. Lysosomes break down cellular waste products, fats, carbohydrates, proteins, and other macromolecules into small compounds, which are transferred back into the cytoplasm as new cell-building materials. Indeed, its lipid membrane contains many enzymes, proton pumps and transport proteins. Acid pH is regulated to allow optimum activities of acid hydrolases [1]-[2]. The fluorescent LysoTracker probe is structured to easily insert in living cells (a fluorophore is linked to a weak base that is only partially protonated at neutral pH). This characteristic permits to this labeling/staining to be very selective for acid organelles i.e. the lysosomes. Then, effects of radiations, like blue light for instance, at lysosomal level can be evaluated. Indeed, these radiations lead to free radical formation and affect the normal lysosomes network, its distribution in the cell space. This can be visualized with specific fluorescent probe LysoTracker. Autophagy is an eukaryotic cell process that allow cytoplasmic materials digestion in a vacuole that fuses with the lysosome. Indeed, lysosomes can directly incorporate cytoplasmic fragments (micro-autophagy), or via autophagic vacuoles, named autophagosomes (macro-autophagy, fusion of lysosome and autophagosome is so called autolysosome). Autophagy is an important mechanism that allows the cell to mobilize its energy stocks to defend and destroy its damaged organelles and then avoid serious effects. This process permits elimination and replacement of proteins and non-functional organelles, then to ensure homeostasis. It is an essential cytoprotective mechanism that allows adaptive cell responses to different kinds of stress or damages, as nutritive privation (starvation). So it is necessary to cell survival, but also to other fundamental physiologic phenomena as development, immunity, cell differentiation (including keratinocytes differentiation to corneocytes in the epidermis). It is involved in longevity control, aging, and development of pathologies as cancer or diabetes, infectious, metabolic, or neuro-degenerative diseases. […] Three concentrations of the extract HCR are tested (weight/volume % of dry extract or DE, as it is a liquid extract), each dose being evaluated as quintuplicate (5 wells). Irradiation dose of 453 nm blue light is 40 J/cm^2 (23 mW/cm^2 for 29 minutes). b)—Cells are seeded into 96-wells microplates (at a cell density of 10,000 cells per well, i.e. 30,000 NHF/cm2), 24 hours before treatment (incubation at 37° C./5% CO2). […] Fibroblasts are then treated again with the product (curative effect) for another 24 h (so the total application is 48 h). Cells are seeded in complete medium: Dulbecco's modified Eagle medium or DMEM (Gibco 41966), with antibiotics (Gibco 15140) and 10% of foetal bovine serum or FBS (Gibco 10270). Treatments are done in medium without FBS. Irradiation is done in PBS (phosphate buffer saline). All incubation/treatment times are at 37° C./5% CO2 (except irradiation, done at room temperature). At the end of treatment, wells are delicately rinsed (PBS) and 0.05 mM MDC probe is applied on cells (Sigma 30432) (37° C./5% CO2). After incubation during 30 minutes and washes, fluorescence is measured at 380 nm (excitation) and 525 nm (emission) wavelengths (Tecan Safire II machine). […]
# [3] = tested on: mitochondria network of normal human fibroblasts (NHF); experiment: Mitochondrial network protection (MitoTracker staining) in UVA-irradiated fibroblasts; details: 500 μM, positive control
# Experimental: b)-Normal human fibroblasts (NHF) extracted after plastic surgery from mammary skin dermis of a donor, were cultured as primary monolayers; a)-Fibroblasts were seeded into Petri dishes (at a cell density of 150,000 cells per dish, with a diameter of 60 mm, i.e. 7,700 NHF/cm^2), in the same medium as previously described (complete medium, i.e. with FBS), one day before treatment (incubation at 37° C.; 5% CO2). Each test compound concentration/dose (in one dish each) was then applied for 24 hours (in medium without sera; incubation at 37° C./5% CO2). […] b)-To evaluate the mitochondria staining, cells were incubated with a fluorescent probe (Invitrogen MitoTrackerTM). Cells were observed and photos were taken with x40 objective (Olympus […] microscope and […] Microvision software), with or without appropriate fluorescent filter. The photos allowed the visualization of the mitochondria network or of the whole cells, respectively. • 4)-Evaluation of the Effects on the Metabolic Activity (ATP & NAD^+/NADH Titrations)
# [4] = tested on: ATP production by normal human fibroblasts (NHF); experiment: ATP titration in fibroblasts, UVA-irradiated or not; details: 500 μM
# Experimental: (§1) a)—In order to check the effects of UV and the tested product on cells metabolism, ATP and NAD^+/NADH titrations were performed. • (i)—Cells were seeded into 96-wells plates (at a cell density of 5,000 cells per well, i.e. 15,000 NHF/cm^2), in the same medium as previously described, one day before treatment. Then the treatment and irradiation timing was the same: first application for twenty-four hours (in medium without sera), then UVA-irradiation or not (same dose) and finally a second treatment for another twenty-four hours. As formerly, from the beginning to the end of the experiment, cells were incubated at 37° C./5% CO2. […] Measured quantity of this product (absorbance) is proportional to total NAD (NAD^+ and NADH) in each sample. • (v)—The ATP assay kit is an ATP monitoring system based on firefly (Photinus pyralis) luciferase. Added luciferase and D-luciferin react with ATP in samples to produce light, which measure (luminescence) is proportional to the ATP concentration. • b)—Raw data of both ATP and NAD^+/NADH titrations, i.e. luminescence units (RLU) or OD measurements obtained for respective standards, were plotted on graphics to determine standard curves. Then, the concentrations of ATP or NAD^+/NADH measured in the samples were determined. Quantitative values of each condition were averaged. […]
# [5] = tested on: NAD+/NADH production by normal human fibroblasts (NHF); experiment: NAD+/NADH titration in fibroblasts, UVA-irradiated or not; details: Vitamin C 500 μM, UVA-irradiated
# Experimental: as §1
# [6] = tested on: lysosomes network of normal human fibroblasts (NHF); experiment: Lysosomal network protection (LysoTracker staining) in UVA-irradiated fibroblasts; details: 500 μM
# Experimental: b)-Normal human fibroblasts (NHF) extracted after plastic surgery from mammary skin dermis of a donor, were cultured as primary monolayers; a)-Fibroblasts seeding was carried out as described in Example 2. b)-Cells were then incubated with a fluorescent probe (Invitrogen LysoTrackerTM). They were observed and photographed with x40 objective (Olympus CK40 microscope and […] Microvision software), with or without appropriate fluorescent filter. The photos allowed the visualization respectively of the lysosomes network or of the whole cells. c)-Fluorescence was quantified with Colombus software, by HCS Pharma (Rennes, France), as mean intensity (3 images for each condition). It is the mean value of intensity for each pixel of staining, contained in the cell area stained with LysoTracker (number of cells of each image is taken into account, as the final value is the mean of all cells values on the image). • 4)-Results
compound,measurement,setting,value
OO [hydrogen peroxide],Stimulation of ROS production comparatively to unstimulated control,[1]; hydrogen peroxide 1 mM,+808%
"CC(=O)Oc1c(C)c(C)c2c(c1C)CCC(C)(CCC[C@H](C)CCC[C@H](C)CCCC(C)C)O2 (stereo partly drawn) [vitamin E, α-tocopherol acetate]","RFU (means), MDC autophagic activity","[2]; 200 μMoles, irradiated (453 nanometers) NHF",86 ^(*^) RFU
same,"RFU (means), MDC autophagic activity","[2]; 200 μMoles, non irradiated NHF",76 ^(**^) RFU
same,Decrease of autophagic activity of irradiated fibroblast cells,[2]; vitamin E,22%
"O=C1O[C@H]([C@@H](O)CO)C(O)=C1O [vitamin C, L-ascorbic acid]",Protection of mitochondria network against UV (MitoTracker images),[3],effects of UVA were less distinct
same,"ATP synthesis, change compared to irradiated control",[4],+61%
same,"RFU (means), MDC autophagic activity","[2]; 500 μMoles, irradiated (453 nanometers) NHF",95 RFU
same,"RFU (means), MDC autophagic activity","[2]; 500 μMoles, non irradiated NHF",60 ^(***^) RFU
same,Decrease of autophagic activity of irradiated fibroblast cells,[2]; vitamin C,14%
same,NAD+/NADH release by UV-irradiated cells,[5],did not show expected positive effect
same,LysoTracker fluorescence mean intensity,[6]; highly significant,higher
same,Protection of lysosomes network against UV (LysoTracker images),[6]; positive control,diminished the effects of UVA
"c1ccc2c(c1)cc1ccc3cccc4ccc2c1c34 [BaP, benzo(a)pyrene]",Stimulation of ROS production comparatively to non-stimulated acetone solvent control,[1]; BaP 36 μM,+141%

# Source: patent publication US20210046143A1, “METHOD FOR TREATMENT OF THE HUMAN BODY BY THERAPY BY ADMINISTERING A COMPOSITION COMPRISING A PLANT EXTRACT OF THE SPECIE HEDYCHIUM CORONARIUM” (Societe D'exploitation De Produits Pour Les Industries …, priority 2016, published 2021)
